Earlier results as cited in US20260335285A1, “A TOPICAL COMPOSITION COMPRISING CHLORINE E6 AND ZINC L-PYROGLUTAMATE” (ZXA GROUP LTD., priority 2022, published 2026).

Conditions: known in the art; topical

delivery into the skin: inefficient delivery into the skin
Structure (SMILES): C=Cc1c(C)c2cc3nc(c(CC(=O)O)c4[nH]c(cc5nc(cc1[nH]2)C(C)=C5CC)c(C)c4C(=O)O)[C@@H](CCC(=O)O)[C@@H]3C [chlorine e6, (17S,18S)-18-(2-carboxyethyl)-20-(carboxymethyl)-12-ethenyl-7-ethyl-3,8,13,17-tetramethyl-17,18,22,23-tetrahydroporphyrin-2-carboxylic acid]
